Data taken from paper PMC6332183, “α-Glucosidase Inhibitors from Vauquelinia corymbosa” (Molecules, 2015).
Like-named read-outs stand apart in the source and are kept apart here. Marks after values point to notes of the source that are not given here.

Assays:
[1] = system: rat small intestinal α-glucosidases; test: rat small intestinal α-glucosidase inhibitory assay (pNPG); format: biochemical
Method: (§1) Aliquots of 0–10 μL of testing materials (triplicated) were incubated for 10 min with 20 μL of an enzyme solution of yeast α-glucosidase (Sigma-Aldrich, 0.4 units/mL in PBS) or mammalian α-glucosidase (Sigma-Aldrich, 40 mg). The mammalian enzyme was separated from rat intestinal acetone powder, which was hand homogenized using 1 mL of ice-cold PBS. After sonicating during ten min, the content was centrifuged at 6400 rpm for 10 min (Microfuge Qualitron, Inc., Albany, NY, USA). The supernatant was recovered and used for the in vitro assay.
(§2) After incubation with the enzymes 10 μL of p-nitrophenyl α-D-glucopyranoside (pNPG 5 mM and 10 mM in PSB, respectively) were added and then incubated for 20 min at 37 °C. Then, absorbances were determined in a BIO-RAD microplate reader model 680 at 405 nm.

[2] = system: rat small intestinal α-glucosidases; set-up: method as in doi:10.1016/j.fshw.2014.11.003; conditions: values taken from reference; ref [22]; cited from earlier work
yeast α-glucosidase [3] = target: T1, yeast α-glucosidase (Saccharomyces cerevisiae, UniProt P53341); test: yeast α-glucosidase inhibitory assay (pNPG, spectrophotocolorimetric); format: biochemical
Method: as §1, §2

yeast α-glucosidase [4] = target: T1, yeast α-glucosidase; test: kinetic analysis (Lineweaver-Burk) with yeast α-glucosidase; format: biochemical; conditions: Lineweaver-Burk plot
Method: (§3) The mode of inhibition was determined by the Lineweaver-Burk plots. The inhibition constants were calculated using the following equation [36]: (2) v=Vmax×S/Km(1+[I]/Ki)+S(1+[I]/αKi) where v is the initial velocity in absence and presence of inhibitor; S and I are concentration of substrate and inhibitor, respectively; Vmax is the maximum velocity; Km is the Michaellis-Menten constant; Ki is the competitive inhibition constant and αKi is the uncompetitive inhibition constant. The kinetic data was analyzed using a computer program for nonlinear regressions (Graph Pad Prism 5.0, GraphPad Software, Inc., La Jolla, CA, USA).

[5] = system: small intestinal rat α-glucosidase; test: kinetic analysis (Lineweaver-Burk) with small intestinal rat α-glucosidase
Method: as §3

[6] = mean ± SD of triplicate experiments, read-out: Rat Small Intestinal IC50

T1 sequence (P53341 whole entry): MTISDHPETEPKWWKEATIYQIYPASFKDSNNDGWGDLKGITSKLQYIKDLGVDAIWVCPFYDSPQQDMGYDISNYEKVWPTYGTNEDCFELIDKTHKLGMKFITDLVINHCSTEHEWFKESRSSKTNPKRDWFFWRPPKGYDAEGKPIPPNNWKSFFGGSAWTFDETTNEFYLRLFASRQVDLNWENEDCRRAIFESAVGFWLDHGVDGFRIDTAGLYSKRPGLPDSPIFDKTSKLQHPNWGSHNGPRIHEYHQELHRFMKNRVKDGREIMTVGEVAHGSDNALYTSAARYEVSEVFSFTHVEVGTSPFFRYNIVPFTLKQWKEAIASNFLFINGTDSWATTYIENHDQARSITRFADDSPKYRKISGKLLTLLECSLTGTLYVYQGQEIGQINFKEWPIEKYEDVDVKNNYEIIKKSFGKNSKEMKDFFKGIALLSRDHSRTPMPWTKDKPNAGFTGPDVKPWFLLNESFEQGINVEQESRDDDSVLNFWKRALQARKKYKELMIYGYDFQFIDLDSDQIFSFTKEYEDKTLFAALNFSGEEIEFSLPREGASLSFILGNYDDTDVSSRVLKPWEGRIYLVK

| Rat Small Intestinal Maximum Inhibition (%) [1] [%] | IC50 [1, 6] [µM] | Rat Small Intestinal % Inhibition obtained with 10.0 mM of inhibitor [1] | Molecule | other results |
| --- | --- | --- | --- | --- |
| 52.6 | 10700 ± 960 | – | CC(=O)c1ccc(O[C@@H]2O[C@H](CO)[C@@H](O)[C@H](O)[C@H]2O)cc1 [Compound 7, picein] | – |
| 65.1 | 1980 ± 150 | – | O=c1c(O[C@@H]2O[C@H](CO)[C@H](O)[C@H](O)[C@H]2O)c(-c2ccc(O)c(O)c2)oc2cc(O)cc(O)c12 [Compound 3, hyperoside] | – |
| – | – | 39.3 ^d % | COc1ccc(O[C@@H]2O[C@H](CO)[C@@H](O)[C@H](O)[C@H]2O)cc1 [Compound 8, methylarbutin] | – |
| – | – | – | O=c1c(O)c(-c2ccc(O)c(O)c2)oc2cc(O)cc(O)c12 [Compound 9, quercetin] | IC50 [2]: 216 µM |
| – | – | 15.2 ^d % | Oc1cc(O)c2c(c1)O[C@@H](c1ccc(O)c(O)c1)[C@@H](O)C2 [Compound 2, (−)-epi-catechin] | – |
| 71.0 | 1630 ± 110 | – | O=c1c(O[C@@H]2O[C@H](CO)[C@@H](O)[C@H](O)[C@H]2O)c(-c2ccc(O)c(O)c2)oc2cc(O)cc(O)c12 [Compound 4, isoquercetin] | – |
| 75.8 | 430 ± 30 | – | O=C(OC[C@H]1O[C@@H](Oc2c(-c3ccc(O)c(O)c3)oc3cc(O)cc(O)c3c2=O)[C@H](O)[C@@H](O)[C@H]1O)c1ccccc1 [Compound 6, quercetin-3-O-(6′′-benzoyl)-β-galactoside] | IC50 ([1]; read-out: IC50, mammalian enzyme): 437 µM; mode of inhibition, yeast α-glucosidase (yeast α-glucosidase [4]): mixed-type inhibitor; mode of inhibition, rat α-glucosidase ([5]; Lineweaver-Burk plot): mixed-type inhibitor; Ki ([5]; read-out: inhibition constant Ki, rat enzyme (abstract), mixed-type inhibition): 212 µM |

| Molecule | Rat Small Intestinal Maximum Inhibition (%) [1] [%] | IC50 [1, 6] [µM] | Rat Small Intestinal % Inhibition obtained with 10.0 mM of inhibitor [1] | other results |
| --- | --- | --- | --- | --- |
| N#C[C@H](O[C@@H]1O[C@H](CO)[C@@H](O)[C@H](O)[C@H]1O)c1ccccc1 [Compound 1, prunasin] | – | – | 44.5 ^d % | – |
| C[C@H]1O[C@H](O[C@H]2[C@H](O)[C@@H](O)[C@@H](O[C@H]3[C@H](O)[C@@H](O)C(O)O[C@@H]3CO)O[C@@H]2CO)[C@H](O)[C@@H](O)[C@@H]1N[C@H]1C=C(CO)[C@@H](O)[C@H](O)[C@H]1O (stereo partly shown) [Acarbose, acarbose, reference compound] | 80.2 | 100 ± 3 | – | Yeast Maximum Inhibition (%) (yeast α-glucosidase [3]): 89.7% |
| quercitrin [Compound 5] | 59.7 | 3340 ± 380 | – | Yeast Maximum Inhibition (%) (yeast α-glucosidase [3]): 45.0% |
